Results reported in US20220087996A1, “Histone acetylase p300 inhibitor and use thereof” (HINOVA PHARMACEUTICALS INC., priority 2018, published 2022).

system: CWR22RV1 cells; assay: Inhibition of proliferation of CWR22RV1 cells (CCK-8); type: cell-based, human; settings: Homo sapiens, CWR22Rv1, 144 h, 6 days culture, read-out: IC50 against CWR22RV1 cells
Experimental: 1) CWR22RV1 cells were subcultured in cell culture medium, and the cells in good growth condition were seeded in a 96-well plate, 80 μL for each well, and the cell number in each well was 1500. The plate was incubated overnight in a 37° C., 5% CO2 cell incubator. 2) The drug was prepared as 30 mM stock solution with dimethyl sulfoxide (DMSO). Prior to use, the stock solution was diluted 3 times with DMSO, and then further diluted as 3-fold gradient to obtain 9 concentration gradients. Then, each concentration of compound was diluted 200 times with the culture solution (ensuring that the DMSO concentration in the culture system was 0.1%), and two replicate wells were set for each concentration. 20 μL of diluted compound solution was added to the cell culture well (with final concentrations of 10 μM, 3.3 μM. 1.1 μM . . . ), and the plate was gently shaken to mix. In addition, 3 negative control wells containing only cells and 3 blank control wells containing only culture medium were included (6 wells were each added 20 μL DMSO diluted 200 times with culture medium). 2. Result detection: (1) After culturing for 6 days, 10 μL CCK-8 was added to each well, and the plate was continually cultured in a 37° C., 5% CO2 cell incubator for 2.5 h. (2) The absorbance (OD value) was detected at 450 nm using a multifunctional microplate reader. (3) The data were analyzed by Dose-response-inhibition equation in the software GraphPad Prism6, and the IC50 value was obtained.

**Q.** How did the IC50 turn out when `CNC(=O)Nc1ccc2c(c1)CC[C@@]21OC(=O)N(CC(=O)N2CCCc3ccc(C(F)(F)F)cc32)C1=O` [Example 300, (R)-1-(2′,4′-dioxo-3′-(2-oxo-2-(7-(trifluoromethyl)-3,4-dihydroquinolin-1(2H)-yl)ethyl)-2,3-dihydrospiro[indene-1,5′-oxazolidine]-5-yl)-3-methylurea] was run?
**A.** The IC50 was over 2000 nM.

**Q.** Which IC50 does the source give for `CNC(=O)Nc1ccc2c(c1)CC[C@@]21OC(=O)N(CC(=O)N2CCCc3cc(-c4cnn(C)c4)ccc32)C1=O` [Example 302, (R)-1-methyl-3-(3′-(2-(6-(1-methyl-1H-pyrazol-4-yl)-3,4-dihydroquinolin-1 (2H)-yl)-2-oxoethyl)-2′,4′-dioxo-2,3-dihydrospiro[indene-1,5′-oxazolidine]-5-yl)urea] here?
**A.** Its IC50 is over 2000 nM.

**Q.** Which IC50 does the source give for `CNC(=O)Nc1ccc2c(c1)CC[C@@]21OC(=O)N(CC(=O)N2CCCC2c2ccccc2)C1=O` (stereo partly drawn) [Example 303, 1-((1R)-2′,4′-dioxo-3′-(2-oxo-2-(2-phenylpyrrolidin-1-yl)ethyl)-2,3-dihydrospiro[indene-1,5′-oxazolidine]-5-yl)-3-methylurea] here?
**A.** Its IC50 is 500 to 2000 nM.

**Q.** `CNC(=O)Nc1ccc2c(c1)CC[C@@]21OC(=O)N(CC(=O)N2Cc3cccnc3C2)C1=O` [Example 304, (R)-1-(2′,4′-dioxo-3′-(2-oxo-2-(5H-pyrrolo[3,4-b]pyridin-6(7H)-yl)ethyl)-2,3-dihydrospiro[indene-1,5′-oxazolidine]-5-yl)-3-methylurea] was tested. Which IC50 did it give?
**A.** Its IC50 is over 2000 nM.

**Q.** Which IC50 does the source give for `CNC(=O)Nc1ccc2c(c1)CC[C@]21OC(=O)N(CC(=O)N2Cc3cccnc3C2)C1=O` [Example 305, (S)-1-(3′-(2-(5,7-dihydro-6H-pyrrolo[3,4-b]pyridin-6-yl)-2-oxoethyl)-2′,4′-dioxo-2,3-dihydrospiro[indene-1,5′-oxazolidine]-5-yl)-3-methylurea] here?
**A.** Its IC50 is over 2000 nM.

**Q.** How did the IC50 turn out when `CNC(=O)Nc1ccc2c(c1)CC[C@@]21OC(=O)N(CC(=O)N2CCC[C@@H]2c2ccccc2)C1=O` [Example 306, 1-((R)-2′,4′-dioxo-3′-(2-oxo-2-((R)-2-phenylpyrrolidin-1-yl)ethyl)-2,3-dihydrospiro[indene-1,5′-oxazolidine]-5-yl)-3-methylurea] was run?
**A.** The IC50 was over 2000 nM.

**Q.** With `Cc1noc(C)c1-c1ccc2c(c1)C1(CC1)CC21OC(=O)N(CC(=O)N(Cc2ccc(F)cc2)[C@@H](C)C(F)(F)F)C1=O` (stereo partly drawn) [Example 308, 2-(5-(3,5-dimethylisoxazol-4-yl)-2′,4′-dioxo-2,3-dihydrospiro[cyclopropane-indene-1,5′-oxazole]-3′-yl)-N-(4-fluorobenzyl)-N—((S)-1,1,1-trifluoropropan-2-yl)acetamide] as the molecule, how does the IC50 read?
**A.** The IC50 was at most 500 nM.

**Q.** Which IC50 does the source give for `CNC(=O)Nc1ccc2c(c1)CC[C@]21OC(=O)N(CC(=O)N2CCC[C@@H]2c2ccccc2)C1=O` [Example 309, 1-((S)-2′,4′-dioxo-3′-(2-oxo-2-((R)-2-phenylpyrrolidin-1-yl)ethyl)-2,3-dihydrospiro[indene-1,5′-oxazolidine]-5-yl)-3-methylurea] here?
**A.** The IC50 was 500 to 2000 nM.

**Q.** `CNC(=O)Nc1ccc2c(c1)CC[C@]21OC(=O)N(CC(=O)N2CCC[C@H]2c2ccccc2)C1=O` [Example 310, 1-((S)-2′,4′-dioxo-3′-(2-oxo-2-((S)-2-phenylpyrrolidin-1-yl)ethyl)-2,3-dihydrospiro[indene-1,5′-oxazolidine]-5-yl)-3-methylurea] was tested. Which IC50 did it give?
**A.** Its IC50 is over 2000 nM.

**Q.** For `CNC(=O)Nc1ccc2c(c1)CC[C@]21OC(=O)N(CC(=O)N2CCc3ccccc3C2)C1=O` [Example 311, (S)-1-(3′-(2-(3,4-dihydroisoquinolin-2(1H)-yl)-2-oxoethyl)-2′,4′-dioxo-2,3-dihydrospiro[indene-1,5′-oxazolidine]-5-yl)-3-methylurea], which IC50 is on record?
**A.** The IC50 was over 2000 nM.

**Q.** How did the IC50 turn out when `CNC(=O)Nc1ccc2c(c1)CC[C@]21OC(=O)N(CC(=O)N2C[C@H]3C[C@@H]2CO3)C1=O` [Example 315, 1-((S)-3′-(2-((1R,4R)-2-oxa-5-azabicyclo[2.2.1]heptan-5-yl)-2-oxoethyl)-2′,4′-dioxo-2,3-dihydrospiro[indene-1,5′-oxazolidine]-5-yl)-3-methylurea] was run?
**A.** Its IC50 is over 2000 nM.

same assay, conditions: Homo sapiens, CWR22Rv1, 144 h, 6 days culture, read-out: IC50 against CWR22RV1 cells (text)

**Q.** How did the IC50 turn out when `Cc1noc(C)c1-c1ccc2c(c1)C1(CC1)CC21OC(=O)N(CC(=O)N(Cc2ccc(F)cc2)[C@@H](C)C(F)(F)F)C1=O` (stereo partly drawn) [Example 308, 2-(5-(3,5-dimethylisoxazol-4-yl)-2′,4′-dioxo-2,3-dihydrospiro[cyclopropane-indene-1,5′-oxazole]-3′-yl)-N-(4-fluorobenzyl)-N—((S)-1,1,1-trifluoropropan-2-yl)acetamide] was run?
**A.** Its IC50 is at most 500 nM.
